The first experiment deals with T1, wild type HIV-1 protease (Q7K) (Human immunodeficiency virus type 1 group M subtype B, UniProt P04585, Q495K).
T1 construct: Wide type HIV-1 protease (Q7K)
Kind of experiment: FRET HIV-1 protease inhibition assay, wild type. Format: biochemical.
Conditions: not given
As for the experimental part:
Biological Evaluation of Selected Compounds of the Invention. HIV protease inhibitor activities were determined by fluorescence resonance energy transfer (FRET) method. […] Inhibitor binding dissociation constant (Ki value) was obtained by nonlinear regression fitting to the plot of initial velocity as a function of inhibitor concentration based on Morrison equation.
The energy transfer donor (EDANS) and acceptor (DABCYL) were labeled at its two ends respectively to perform FRET. Fluorescence measurements were carried out on PTI fluorescence spectrophotometer (Photon Technology International) at 30° C. Excitation and emission wavelengths were set at 340 nm and 490 nm, respectively. Each reaction was recorded for about 10 min. Wide type HIV-1 protease (Q7K) and its MDR mutants M1 (L10I, G48V, I54V, L63P, V82A), M2 (D30N, L63P, N88D), and M3 (L10I, L63P, A71V, G73S, I84V, L90M) were desalted through PD-10 columns (Amersham Biosciences). Sodium Acetate (20 mM, pH 5) was used as elution buffer. Apparent protease concentrations were around 50 nM estimated by UV spectrophotometer (Shimadzu) at 280 nm. All inhibitors were dissolved in DMSO and diluted to appropriate concentrations. Protease (2 μL) and inhibitor (2 μL) or DMSO were mixed and incubated for 20-30 min at room temperature before initialing substrate cleavage reaction. Throughout this work, 150 μL of 1 μM substrate was used. Substrate buffer is composite of 0.1 M sodium acetate, 1 M sodium chloride, 1 mM ethylenediaminetetraacetic acid (EDTA), 1 mM dithiothreitol (DTT), 2% dimethylsulfoxide (DMSO) and 1 mg/mL bovine serum albumin (BSA) with an adjusted pH 4.7. Inhibitor binding dissociation constant (Ki) was obtained by nonlinear regression fitting (GraFit 5, Erithacus software) to the plot of initial velocity as a function of inhibitor concentrations based on Morrison equation.
The molecule `COc1ccc(S(=O)(=O)N(CC(C)C)C[C@@H](O)[C@H](Cc2ccccc2)NC(=O)[C@@H]2CN(c3cccc(C(F)(F)F)c3)C(=O)O2)cc1` [21d, (5S)—N-[(1S,2R)-1-Benzyl-2-hydroxy-3-[isobutyl[(4-methoxyphenyl)sulfonyl]amino]-propyl]-2-oxo-3-[(3-trifluoromethyl)phenyl]oxazolidine-S-carboxamide] had a Ki of 0.006 nM.
On the same count and under the same terms, the result for `COc1ccc(S(=O)(=O)N(CC(C)C)C[C@@H](O)[C@H](Cc2ccccc2)NC(=O)[C@@H]2CN(c3cccc(F)c3)C(=O)O2)cc1` [21b, (5S)—N-[(1S,2R)-1-Benzyl-2-hydroxy-3-[isobutyl[(4-methoxyphenyl)sulfonyl]amino]-propyl]-3-(3-fluorophenyl)-2-oxo-oxazolidine-S-carboxamide] reads 0.08 nM; that for `COc1ccc(S(=O)(=O)N(CC(C)C)C[C@@H](O)[C@H](Cc2ccccc2)NC(=O)[C@@H]2CN(c3cccc(OC)c3)C(=O)O2)cc1` [21g, (5S)—N-[(1S,2R)-1-Benzyl-2-hydroxy-3-[isobutyl[(4-methoxyphenyl)sulfonyl]-amino]propyl]-3-(3-methoxyphenyl)-2-oxo-oxazolidine-S-carboxamide], 0.045 nM; that for `CC(C)CN(C[C@@H](O)[C@H](Cc1ccccc1)NC(=O)[C@H]1CN(c2ccccc2)C(=O)O1)S(=O)(=O)c1ccc(N)cc1` [24a, (5R)—N-[(1S,2R)-3-[[(4-Aminophenyl)sulfonyl](isobutyl)amino]-1-benzyl-2-hydroxypropyl]-2-oxo-3-phenyloxazolidine-S-carboxamide], 37.4 nM.

Staying with this experiment, now noted: cyclopropylmethyl at P1' vs isobutyl analog, wild type.
With `COc1cccc(S(=O)(=O)N(CC2CC2)C[C@@H](O)[C@H](Cc2ccccc2)NC(=O)[C@@H]2CN(c3cccc(F)c3)C(=O)O2)c1` [36b, (5S)—N-[(1S,2R)-1-Benzyl-3-[(cyclopropylmethyl)[(3-methoxyphenyl)sulfonyl]amino]-2-hydroxypropyl]-3-(3-fluorophenyl)-2-oxo-oxazolidine-S-carboxamide], the “fold higher Ki than the corresponding inhibitor with isobutyl group at P1'” value was “about 3 fold”.
On the same count and under the same terms, next, `COc1cccc(S(=O)(=O)N(CC2CC2)C[C@@H](O)[C@H](Cc2ccccc2)NC(=O)[C@@H]2CN(c3ccc(C(C)=O)cc3)C(=O)O2)c1` [36f, (5S)-3-(4-Acetylphenyl)-N-[(1S,2R)-1-Benzyl-3-[(cyclopropylmethyl)[(3-methoxy-phenyl)sulfonyl]amino]-2-hydroxypropyl]-2-oxo-oxazolidine-S-carboxamide]: approximately 200 fold.

The experiment is the same for the next values; noted with them: wild type HIV-1 protease (Q7K), FRET, in triplicate; read-out: Ki.
For `COc1cccc(S(=O)(=O)N(CC2CC2)C[C@@H](O)[C@H](Cc2ccccc2)NC(=O)[C@@H]2CN(c3cccc(F)c3)C(=O)O2)c1` [36b, (5S)—N-[(1S,2R)-1-Benzyl-3-[(cyclopropylmethyl)[(3-methoxyphenyl)sulfonyl]amino]-2-hydroxypropyl]-3-(3-fluorophenyl)-2-oxo-oxazolidine-S-carboxamide], the Ki is 0.257 nM.
Still for that read-out and setting: next, `COc1cccc(S(=O)(=O)N(CC2CC2)C[C@@H](O)[C@H](Cc2ccccc2)NC(=O)[C@@H]2CN(c3ccc(C(C)=O)cc3)C(=O)O2)c1` [36f, (5S)-3-(4-Acetylphenyl)-N-[(1S,2R)-1-Benzyl-3-[(cyclopropylmethyl)[(3-methoxy-phenyl)sulfonyl]amino]-2-hydroxypropyl]-2-oxo-oxazolidine-S-carboxamide]: 0.08 nM; `COc1ccc(S(=O)(=O)N(CC(C)C)C[C@@H](O)[C@H](Cc2ccccc2)NC(=O)[C@@H]2CN(c3ccccc3)C(=O)O2)cc1` [21a, (5S)—N-[(1S,2R)-1-Benzyl-2-hydroxy-3-[isobutyl[(4-methoxyphenyl)sulfonyl]amino]propyl]-2-oxo-3-phenyloxazolidine-S-carboxamide]: 0.1 nM; `CC(C)CN(C[C@@H](O)[C@H](Cc1ccccc1)NC(=O)[C@@H]1CN(c2cccc(C(F)(F)F)c2)C(=O)O1)S(=O)(=O)c1ccc2c(c1)OCO2` [26d, (5S)—N-[(1S,2R)-3-[[(Benzo-[1,3]-dioxole-S-sulfonyl)](isobutyl)amino]-1-benzyl-2-hydroxypropyl]-2-oxo-3-[(3-trifluoromethyl)phenyl]oxazolidine-S-carboxamide]: 0.016 nM.
Still for that read-out and setting: next, `COc1ccc(S(=O)(=O)N(CC(C)C)C[C@@H](O)[C@H](Cc2ccccc2)NC(=O)[C@@H]2CN(c3ccc(C(C)=O)cc3)C(=O)O2)cc1F` [27f, (S)-3-(4-Acetylphenyl)-N-[(1S,2R)-1-Benzyl-3-[[(3-fluoro-4-methoxyphenyl)-sulfonyl](isobutyl)amino]-2-hydroxypropyl]-2-oxo-oxazolidine-S-carboxamide]: 0.08 nM; `CC(C)CN(C[C@@H](O)[C@H](Cc1ccccc1)NC(=O)[C@@H]1CN(c2cccc(C(F)(F)F)c2)C(=O)O1)S(=O)(=O)c1ccc(N)cc1` [25d, (5S)—N-[(1S,2R)-3-[[(4-Aminophenyl)sulfonyl](isobutyl)amino]-1-benzyl-2-hydroxypropyl]-2-oxo-3-[(3-trifluoromethyl)phenyl]oxazolidine-S-carboxamide]: 0.042 nM; `CC(C)CN(C[C@@H](O)[C@H](Cc1ccccc1)NC(=O)[C@@H]1CN(c2ccccc2)C(=O)O1)S(=O)(=O)c1ccc(N)cc1` [25a, (5S)—N-[(1S,2R)-3-[[(4-Aminophenyl)sulfonyl](isobutyl)amino]-1-benzyl-2-hydroxypropyl]-2-oxo-3-phenyloxazolidine-S-carboxamide]: 0.53 nM.
Same read-out and setting: the result for `COc1ccc(S(=O)(=O)N(CC(C)C)C[C@@H](O)[C@H](Cc2ccccc2)NC(=O)[C@@H]2CN(c3ccc(F)c(F)c3)C(=O)O2)cc1` [21c, (5S)—N-[(1S,2R)-1-Benzyl-2-hydroxy-3-[isobutyl[(4-methoxyphenyl)sulfonyl]amino]-propyl]-3-(3,4-difluorophenyl)-2-oxo-oxazolidinone-S-carboxamide] reads 0.066 nM.
In the case of `CC(=O)c1ccc(N2C[C@@H](C(=O)N[C@@H](Cc3ccccc3)[C@H](O)CN(CC(C)C)S(=O)(=O)c3ccc4c(c3)OCO4)OC2=O)cc1` [26f, (5S)-3-(4-Acetylphenyl)-N-[(1S,2R)-3-[[(benzo-[1,3]-dioxole-S-sulfonyl)](isobutyl)-amino]-1-benzyl-2-hydroxypropyl]-2-oxo-oxazolidine-S-carboxamide], the Ki is 0.016 nM.
Consider `COc1ccc(S(=O)(=O)N(CC(C)C)C[C@@H](O)[C@H](Cc2ccccc2)NC(=O)[C@@H]2CN(c3cccc(C(F)(F)F)c3)C(=O)O2)cc1F` [27d, (5S)—N-[(1S,2R)-1-Benzyl-3-[[(3-fluoro-4-methoxyphenyl)sulfonyl](isobutyl)amino]-2-hydroxypropyl]-2-oxo-3-[(3-trifluoromethyl)phenyl)oxazolidine-S-carboxamide], for which the Ki amounted to 0.072 nM.

The experiment is the same for the next values; noted with them: wild type HIV-1 protease, qualitative statement.
On to `CC(C)CN(C[C@@H](O)[C@H](Cc1ccccc1)NC(=O)[C@@H]1CN(c2cccc(F)c2)C(=O)O1)S(=O)(=O)c1ccc(N)cc1` [25b, (5S)—N-[(1S,2R)-3-[[(4-Aminophenyl)sulfonyl](isobutyl)amino]-1-benzyl-2-hydroxypropyl]-3-(3-fluorophenyl)-2-oxo-oxazolidine-S-carboxamide], for which the “inhibitory activity against wild type HIV-1 protease (in words)” value (from here on “inhibitory activity”) is reported as “relatively small improvement in activities compared to 25a”.
Take `CC(=O)c1ccc(N2C[C@@H](C(=O)N[C@@H](Cc3ccccc3)[C@H](O)CN(CC(C)C)S(=O)(=O)c3ccc(N)cc3)OC2=O)cc1` [25f, (5S)-3-(4-Acetylphenyl)-N-[(1S,2R)-3-[[(4-aminophenyl)sulfonyl](isobutyl)amino]-1-benzyl-2-hydroxypropyl]-2-oxo-oxazolidine-S-carboxamide]: the “inhibitory activity” value was “relatively small improvement in activities compared to 25a”.
For the molecule `COc1cccc(S(=O)(=O)N(CC(C)C)C[C@@H](O)[C@H](Cc2ccccc2)NC(=O)[C@@H]2CN(c3ccc(C(C)=O)cc3)C(=O)O2)c1` [29f, (5S)-3-(4-Acetylphenyl)-N-[(1S,2R)-1-benzyl-2-hydroxy-3-[isobutyl[(3-methoxyphenyl)-sulfonyl]amino]propyl]-2-oxo-oxazolidine-S-carboxamide], the “inhibitory activity” value was “significant loss of protease inhibitory activity”.
On to `COc1cccc(S(=O)(=O)N(CC(C)C)C[C@@H](O)[C@H](Cc2ccccc2)NC(=O)[C@@H]2CN(c3ccccc3)C(=O)O2)c1` [29a, (5S)—N-[(1S,2R)-1-Benzyl-2-hydroxy-3-[isobutyl[(3-methoxyphenyl)sulfonyl]amino]-propyl]-2-oxo-3-phenyloxazolidine-S-carboxamide], for which the “inhibitory activity” value was “significant loss of protease inhibitory activity”.
Same read-out and setting: next, `CC(C)CN(C[C@@H](O)[C@H](Cc1ccccc1)NC(=O)O[C@H]1CCOC1)S(=O)(=O)c1ccc(N)cc1` [amprenavir, reference compound]: “Ki value for wild type is also relatively high”.
On the same count and under the same terms, next, `CC(C)CN(C[C@@H](O)[C@H](Cc1ccccc1)NC(=O)[C@@H]1CN(c2ccc(F)c(F)c2)C(=O)O1)S(=O)(=O)c1ccc(N)cc1` [25c, (5S)—N-[(1S,2R)-3-[[(4-Aminophenyl)sulfonyl](isobutyl)amino]-1-benzyl-2-hydroxypropyl]-3-(3,4-difluorophenyl)-2-oxo-oxazolidine-S-carboxamide]: “relatively small improvement in activities compared to 25a”.

As usually defined, the Ki is the equilibrium dissociation constant of an inhibitor or competing ligand from its target.

Values taken from US20110178092A1, “HIV-1 Protease Inhibitors” (priority 2005, published 2011).
